The target in assay [1] is Nuclear receptor subfamily 4 group A member 2 (Homo sapiens, UniProt P43354). Particulars: filed as agonist, dose 100.0 µM.
The target of assay [2] is T1, Peroxisome proliferator-activated receptor gamma (Homo sapiens) (UniProt P37231).
T1 sequence (whole entry): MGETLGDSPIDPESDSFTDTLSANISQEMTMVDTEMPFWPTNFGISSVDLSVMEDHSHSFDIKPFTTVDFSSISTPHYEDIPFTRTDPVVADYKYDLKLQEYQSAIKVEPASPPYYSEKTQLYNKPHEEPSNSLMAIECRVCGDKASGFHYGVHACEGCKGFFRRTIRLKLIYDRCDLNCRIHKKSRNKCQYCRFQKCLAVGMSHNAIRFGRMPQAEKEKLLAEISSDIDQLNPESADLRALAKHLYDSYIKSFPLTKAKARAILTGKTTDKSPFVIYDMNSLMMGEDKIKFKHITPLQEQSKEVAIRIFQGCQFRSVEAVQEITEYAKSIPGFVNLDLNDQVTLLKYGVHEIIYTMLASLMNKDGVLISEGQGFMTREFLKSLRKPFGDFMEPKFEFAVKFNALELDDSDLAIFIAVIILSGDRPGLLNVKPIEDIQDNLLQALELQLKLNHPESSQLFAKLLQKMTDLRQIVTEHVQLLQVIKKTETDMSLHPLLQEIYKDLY
The assay can be described thus: Agonist activity at PPARgamma LBD (unknown origin) transiently transfected in HEK293T cells at 1 uM incubated for 16 hrs by Gal4-hybrid reporter gene based Dual-glo luciferase assay. It is filed as cell-based.

A short description of assay [3]: Selectivity ratio for agonist activity at PPARgamma LBD (unknown origin) transiently transfected in HEK293T cells to agonist activity at human Nurr1 LBD transiently transfected in HEK293T cells. In kind it is cell-based.
A short description of assay [4]: Selectivity ratio for agonist activity at FXR LBD (unknown origin) transiently transfected in HEK293T cells to agonist activity at human Nur77 LBD transiently transfected in HEK293T cells. It is filed as cell-based.
The nature of assay [5]: Selectivity ratio for agonist activity at THRalpha LBD (unknown origin) transiently transfected in HEK293T cells to agonist activity at human Nur77 LBD transiently transfected in HEK293T cells. In kind it is cell-based.
Assay [6] is described as follows: Selectivity ratio for agonist activity at PPARgamma LBD (unknown origin) transiently transfected in HEK293T cells to agonist activity at human NOR-1 LBD transiently transfected in HEK293T cells. In kind it is cell-based.
Assay [7] can be described thus: Selectivity ratio for agonist activity at RARalpha LBD (unknown origin) transiently transfected in HEK293T cells to agonist activity at human NOR-1 LBD transiently transfected in HEK293T cells. In kind it is cell-based.
For assay [8], the target named is T2, Peroxisome proliferator-activated receptor alpha (Homo sapiens) (UniProt Q07869).
T2 sequence (whole entry): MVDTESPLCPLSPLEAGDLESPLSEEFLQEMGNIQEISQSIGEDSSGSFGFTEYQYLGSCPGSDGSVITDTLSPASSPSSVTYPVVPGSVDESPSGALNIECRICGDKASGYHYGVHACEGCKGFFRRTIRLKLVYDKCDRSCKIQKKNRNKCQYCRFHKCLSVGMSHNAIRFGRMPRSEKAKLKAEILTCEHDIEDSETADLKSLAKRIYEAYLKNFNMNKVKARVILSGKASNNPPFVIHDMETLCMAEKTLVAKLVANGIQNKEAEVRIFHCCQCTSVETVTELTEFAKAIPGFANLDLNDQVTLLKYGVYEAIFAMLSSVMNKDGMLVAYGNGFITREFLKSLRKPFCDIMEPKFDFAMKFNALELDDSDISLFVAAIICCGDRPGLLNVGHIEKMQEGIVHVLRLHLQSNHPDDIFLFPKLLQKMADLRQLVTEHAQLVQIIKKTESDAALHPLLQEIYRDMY
Nature of the assay: Agonist activity at PPARalpha LBD (unknown origin) transiently transfected in HEK293T cells at 1 uM incubated for 16 hrs by Gal4-hybrid reporter gene based Dual-glo luciferase assay. In kind it is cell-based.

The target in assay [9] is Nuclear receptor subfamily 4immunitygroup A member 1 (Homo sapiens, UniProt P22736). Nature of the assay: Agonist activity at human Nur77 LBD transiently transfected in HEK293T cells assessed as maximal activation incubated for 16 hrs by Gal4-hybrid reporter gene based Dual-glo luciferase assay relative to control. In kind it is cell-based. Conditions: filed as agonist.
Chain of Nuclear receptor subfamily 4immunitygroup A member 1 (P22736 whole entry, the tested form may be a part): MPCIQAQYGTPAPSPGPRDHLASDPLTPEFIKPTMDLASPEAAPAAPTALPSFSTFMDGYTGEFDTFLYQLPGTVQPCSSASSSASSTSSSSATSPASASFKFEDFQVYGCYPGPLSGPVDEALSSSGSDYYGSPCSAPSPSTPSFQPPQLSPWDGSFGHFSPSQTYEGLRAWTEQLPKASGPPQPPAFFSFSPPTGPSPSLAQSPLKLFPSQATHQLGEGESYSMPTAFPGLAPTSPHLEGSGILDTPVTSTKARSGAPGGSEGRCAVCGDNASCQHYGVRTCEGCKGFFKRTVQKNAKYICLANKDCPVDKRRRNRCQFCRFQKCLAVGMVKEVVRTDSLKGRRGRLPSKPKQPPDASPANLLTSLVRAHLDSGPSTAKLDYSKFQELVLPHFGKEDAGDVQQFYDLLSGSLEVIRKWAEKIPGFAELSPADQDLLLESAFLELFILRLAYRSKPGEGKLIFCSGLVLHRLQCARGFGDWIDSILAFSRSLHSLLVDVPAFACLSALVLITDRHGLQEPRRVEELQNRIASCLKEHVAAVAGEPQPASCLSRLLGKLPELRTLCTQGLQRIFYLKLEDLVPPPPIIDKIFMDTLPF

Active and inactive are the calls of the source. No cut-off for these calls is given here. Some results are limits rather than exact numbers.

Chain of Nuclear receptor subfamily 4 group A member 2 (P43354 whole entry): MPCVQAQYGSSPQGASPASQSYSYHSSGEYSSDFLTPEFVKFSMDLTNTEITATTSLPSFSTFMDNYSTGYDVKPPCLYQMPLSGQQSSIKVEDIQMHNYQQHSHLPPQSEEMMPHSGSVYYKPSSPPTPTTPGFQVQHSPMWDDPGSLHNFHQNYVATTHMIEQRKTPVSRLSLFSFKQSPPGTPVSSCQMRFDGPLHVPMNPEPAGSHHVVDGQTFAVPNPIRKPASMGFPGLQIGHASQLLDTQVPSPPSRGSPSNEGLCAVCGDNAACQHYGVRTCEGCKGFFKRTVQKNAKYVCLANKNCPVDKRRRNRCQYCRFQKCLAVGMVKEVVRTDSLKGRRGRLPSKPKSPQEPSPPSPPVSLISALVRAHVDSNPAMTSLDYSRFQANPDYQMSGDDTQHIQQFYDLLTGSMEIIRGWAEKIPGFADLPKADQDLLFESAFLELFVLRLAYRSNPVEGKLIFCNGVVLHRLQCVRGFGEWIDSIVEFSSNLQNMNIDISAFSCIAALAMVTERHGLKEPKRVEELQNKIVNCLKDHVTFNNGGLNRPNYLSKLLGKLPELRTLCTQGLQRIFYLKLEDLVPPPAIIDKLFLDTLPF

For the compound `CC(C)(C)c1ccc(COc2cccc(C(=O)O)c2)cc1`, in assay [1], the -TdeltaS was -5.2 kcal/mol. The result in [2] and in assay [8] was inactive. The Selectivity ratio in assay [3], in [4], in [5], in assay [6] and in assay [7] was above 30 in each case. Moreover, the Emax in assay [9] was 163%.
